Results published in patent publication US20240293563A1, “GLP-1 RECEPTOR LIGAND MOIETY CONJUGATED OLIGONUCLEOTIDES AND USES THEREOF” (priority 2017, published 2024).
Square brackets hold non-standard residues; d marks the D form. Side chains are listed from the residue outwards. Ends that are not written are not given here. 5'‑hexylamino oligonucleotide ISIS 786434 = not defined here; Aib = CC(C)(N)C(=O)O; Mpa = O=C(O)CCS

Legend:
MALAT1 [1] = assay: In situ hybridization of MALAT1 (QuantiGene ViewRNA) in mouse tissues after intravenous ASO; type: in vivo
Description: NO: 63) or a GLP-1 conjugated MALAT1 ASO (ISIS 816385) described in Example 1 at concentrations of 1.8. 0.6, or 0.2 μmol/kg. […] MALAT1 expression was detected using the QuantiGene ViewRNA tissue assay (Affymetrix, cat. No. QVT0011). Species-specific MALAT1 probes were purchased from Affymetrix (cat. No. VB-11110-01/mouse; VF1-13963/monkey). In brief, mouse tissues were fixed in 10% neutral-buffered formalin and embedded into paraffin and sectioned into […]. After deparaffinization, the tissue slides were boiled in Affymetrix pretreatment solution for 10-30 minutes followed by treatment with protease at 40° C. for 10 to 40 minutes depending on tissue. The MALAT1 RNA probe was used at a 1:40 dilution and was incubated with sample at 40° C. for 120 minutes. After washing, the MALAT1 RNA/probe complex was hybridized with preamplifier, amplifier, and AP-oligonucleotides at 40° C. for 25, 15, and 15 minutes, respectively. After removal of free AP oligonucleotide by washing in PBS, the slide was incubated with Fast Red substrate at room temperature for 30 minutes. The tissue images were acquired using an Aperio scanner. Hung et al., 2013 Nuc Acid Ther. 369-78. To determine a dose response of a GLP-1 conjugated MALAT1 ASO (ISIS 816385) described in Example 1 on pancreatic MALAT1 expression, male C57BL/6 mice fed a chow diet received a single intravenous injection of ISIS 816385 or an unconjugated MALAT1 ASO (ISIS 556089) described above at concentrations of 0.2, 0.06, and 0.02 μmol/kg. MALAT1 expression was detected using the QuantiGene ViewRNA tissue assay described above.

MALAT1 mRNA = assay: Dose dependent antisense inhibition of MALAT1 in hGLP1R-HEK cells; type: cell-based, human; conditions: approximately 24 hrs, qRT-PCR normalized to RPLP0
Description: The hGLP1R-HEK cell line was generated by expressing hGLP1R in Flp-IN™ 293 cells. Cultured hGLP1R-HEK cells were seeded at a density 30,000 cells per well in 96 well plates and saline, 100 nM or 10 μM of unconjugated parent antisense oligonucleotide ISIS 556089 targeted to MALAT1 described above or ISIS 776102 (nucleobase sequence: […]) (SEQ ID NO: 64) targeted to FOXO1, or corresponding GLP-1 peptide conjugated antisense oligonucleotides (ISIS 816385 targeted to MALAT1 described above or ION 913193 targeted to FOXO1 described above) for approximately 24 hrs. After the treatment period, cells were harvested, the mRNA isolated and adjusted to total RNA content as measured by nanadrop UV-Vis spectrophotometer. MALAT1 or FOXO1 mRNA levels were measured by quantitative real-time PCR and normalized to the mRNA levels of the house keeping gene (RPLP0) in the same samples. Human MALAT1 mRNA levels were measured using gene expression assays HS00273907 and FOXO1 mRNA levels were measured using assay Hs01054576 (Applied Biosystems). The mRNA level of the house keeping gene RPLP0 was measured using a primer probe set with forward sequence […] CAT […] (SEQ ID NO: 66), reverse sequence […] (SEQ ID NO: 67). […]
After the treatment period cells were harvested, mRNA isolated and MALAT1 mRNA levels measured by quantitative real-time PCR using the primer probe set as described herein (Example 7). […]

MALAT1 [2] = assay: MALAT1 expression in pancreas by in situ hybridization (RNAscope); type: in vivo, mouse; conditions: 2 μmol/kg, 72 hrs after last dose
Description: Female C57BL/6Crl mice were assigned to five treatment groups. […] All animals were sacrificed approximately 72 hrs after last dose, and pancreas harvested for ex vivo analysis of uptake of antisense oligonucleotides by immunohistochemistry.
Female C57BL/6Crl mice were assigned to five treatment groups as described herein (Example 11) All animals were sacrificed approximately 72 hrs after last dose, and pancreas harvested for ex vivo analysis of MALAT1 expression by in situ hybridization.
The in situ mRNA amplification and labelling process was performed on the Ventana Discovery ULTRA, an Automated ISH platform(Ventana Medical System, Inc) using the RNAscope® VS Assay based on Advanced Cell Diagnostics (ACD). Customized probes were obtained from ACD for the detection of MALAT1 mRNA, and various parameters were tested to optimize the novel RNAscope method for ISH. The signal was amplified using multiple steps, followed by labeled probes and detected using the RNAscope® 2.5 VS Reagent Kit-RED. Stained slides were analyzed under a standard bright-field microscope.

MALAT1 [3] = assay: MALAT1 expression in liver by in situ hybridization; type: in vivo, mouse
Description: Tissues were prepared as described herein, Example 11. The in situ mRNA amplification and labelling process was performed on the Ventana Discovery ULTRA, an Automated ISH platform(Ventana Medical System, Inc) using the RNAscope® VS Assay based on Advanced Cell Diagnostics (ACD). Customized probes were obtained from ACD for the detection of MALAT1 mRNA, and various parameters were tested to optimize the novel RNAscope method for ISH. The signal was amplified using multiple steps, followed by labeled probes and detected using the RNAscope® 2.5 VS Reagent Kit-RED. […] All animals were sacrificed approximately 72 hrs after last, and liver harvested for ex vivo analysis of MALAT1 expression by in situ hybridization. Tissues were prepared, and in situ hybridization performed, as described herein, Example 12.

MALAT1 [4] = assay: MALAT1 in situ hybridization in beta islet cells after i.v. GLP-1 ASO conjugates with various linkers; type: in vivo, mouse; conditions: male C57BL/6 mice; intravenous 0.6 μmol/kg/week once a week for three weeks; 72 hours after final injection
MALAT-1 mRNA = assay: Dose-response inhibition of MALAT-1 mRNA in pancreatic islets 72 hrs after single s.c. dose, various linkers; type: in vivo, mouse; conditions: 0.01 μmol/kg single subcutaneous injection, relative to PBS

Substance: ISIS 816385 (H[Aib]EGTFTSDVSSYLEEQAAKEFIAWLVKGGPSSGAPPPSC([Mpa-5'‑hexylamino oligonucleotide ISIS 786434])-NH2; reading uncertain; also: Cys40 joined to the linker by a disulfide)
- effect in liver (MALAT1 in situ hybridization) (MALAT1 [1]; Study 2, single intravenous injection, any of the doses 0.2, 0.06, 0.02 μmol/kg): No observable effect
- MALAT1 staining in beta islet cells of the pancreas (in situ hybridization) (MALAT1 [1]; Study 2, single intravenous injection, at the 0.2 μmol/kg dose and 0.06 μmol/kg dose): reduced MALAT1 staining
- MALAT1 expression in pancreatic beta islet cells (in situ hybridization) (MALAT1 [1]; male C57BL/6 mice, 2 intravenous injections of 1.8, 0.6 or 0.2 μmol/kg, 72 hours after final injection): reduced MALAT1 expression
- IC50 (MALAT1 mRNA): 20 nM
- MALAT1 expression in the pancreatic islet of Langerhans (MALAT1 [2]; subcutaneous or intravenous (ISIS 556089 subcutaneous only)): reduced
- MALAT1 expression in the exocrine tissue of pancreas (MALAT1 [2]; subcutaneous or intravenous): not in the exocrine tissue
- Liver MALAT1 expression (MALAT1 [3]; 2 μmol/kg intravenous, compared to vehicle control): reduced compared to vehicle control
- Liver MALAT1 expression in hepatocytes (MALAT1 [3]; 2 μmol/kg subcutaneous, compared with ISIS 556089): reduced in hepatocytes of animals treated with ISIS 816385 to a greater extent
- MALAT1 expression in beta islet cells compared to saline control (in situ hybridization) (MALAT1 [4]): reduced
- % inhibition of MALAT-1 mRNA in Pancreatic Islets (MALAT-1 mRNA): 52%
